Test results taken from publication PMC9305623, “Next generation GLP-1/GIP/glucagon triple agonists normalize body weight in obese mice” (Molecular Metabolism, 2022).
*1 amine or outer side, *2 acyl side, *3 side chain or, on linkers, in order; H or OH if unused. Where a SMILES comes first, the peptide text is derived from it. Side-chain parts run from the residue outwards. [ ]: non-standard residue; d: D form. The star is where a group is joined. C20 diacid = O=C(O)CCCCCCCCCCCCCCCCCCC(=O)*; γGlu = O=C(O)[C@H](CCC(=O)[*:2])N[*:1]; εLys = N[C@@H](CCCCN[*:1])C(=O)[*:2]; Aib = CC(C)(N)C(=O)O

How the values were obtained:
Test in all cases: Receptor activation: cAMP production by CRE-luciferase reporter in stably transfected BHK cells
Type in all cases: cell-based
Conditions in all cases: compared to the native ligand for the receptor
hGIP Receptor = target: T1, hGIP Receptor (Homo sapiens, UniProt P48546)
T1 construct: expressed in transfected cells; host or cells: baby hamster kidney (BHK) cells, stably transfected, with CRE-firefly luciferase reporter
T1 sequence (P48546 22-466): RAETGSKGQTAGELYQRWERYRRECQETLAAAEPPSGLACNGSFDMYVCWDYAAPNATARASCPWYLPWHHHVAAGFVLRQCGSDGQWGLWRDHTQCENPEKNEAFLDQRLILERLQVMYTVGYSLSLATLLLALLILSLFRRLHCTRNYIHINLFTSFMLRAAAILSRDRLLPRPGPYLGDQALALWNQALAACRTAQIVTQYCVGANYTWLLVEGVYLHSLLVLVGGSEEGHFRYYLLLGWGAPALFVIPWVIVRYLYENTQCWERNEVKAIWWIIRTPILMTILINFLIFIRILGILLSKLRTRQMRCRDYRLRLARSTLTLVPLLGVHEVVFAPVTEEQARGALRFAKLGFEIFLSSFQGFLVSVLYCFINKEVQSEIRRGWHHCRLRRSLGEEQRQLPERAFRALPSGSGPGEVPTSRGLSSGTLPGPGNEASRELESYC
Method: (§1) Cyclic AMP (cAMP) production was assessed as a proxy for receptor activation using stably transfected baby hamster kidney (BHK) cell lines expressing the DNA for one individual receptor (GLP-1R, GIPR, GcgR; human- or mouse-specific sequence) and the DNA for the firefly luciferase reporter gene linked to the cAMP response element (CRE). The cells were kept in continuous culture at 37 °C and 5% CO2 in Dulbecco's Modified Eagle Medium (DMEM) supplemented with 10% heat-inactivated fetal bovine serum (HI-FBS), 300 μg/mL hygromycin, and 500 μg/mL G418; for cell lines expressing GIPR, the G418 concentration was lowered to 400 μg/mL. Cells were plated in a 96-well poly-D-lysine-coated plate at 5,000 cells per well in growth media and incubated overnight at 37 °C with 5% CO2. After the overnight incubation, the media was removed, the plate was washed once in Dulbecco's phosphase-buffered saline (DPBS), and 50 μL of assay buffer (DMEM without phenol red, 10 mM HEPES, 1x Glutamax, 1% ovalbumin, 0.1% Pluronic F-68) was added to each well. […] Aliquots of the dilution curves were added to the cell plate in a volume of 50 μL per well resulting in final assay concentrations ranging from 1 × 10^−14 to 1 × 10^−7 M. The assay plate was incubated for 3 h at 37 °C and 5% CO2. After the incubation, the assay plate was washed once with DPBS. A 100 μL aliquot of DPBS was added to each well followed by 100 μL of steadylite plus reagent (PerkinElmer). The assay plate was covered to protect reagent from light, shaken at 250 rpm at room temperature for 30 min, and read in a microtiter plate reader. EC50 values were calculated using Prism software (GraphPad) with the nonlinear regression log(agonist) vs. response. A minimum of two replicates were measured for each sample.

hGLP-1 Receptor = target: T2, hGLP-1 Receptor (Homo sapiens, UniProt P43220)
T2 construct: expressed in transfected cells; host or cells: baby hamster kidney (BHK) cells, stably transfected, with CRE-firefly luciferase reporter
T2 sequence (P43220 24-463): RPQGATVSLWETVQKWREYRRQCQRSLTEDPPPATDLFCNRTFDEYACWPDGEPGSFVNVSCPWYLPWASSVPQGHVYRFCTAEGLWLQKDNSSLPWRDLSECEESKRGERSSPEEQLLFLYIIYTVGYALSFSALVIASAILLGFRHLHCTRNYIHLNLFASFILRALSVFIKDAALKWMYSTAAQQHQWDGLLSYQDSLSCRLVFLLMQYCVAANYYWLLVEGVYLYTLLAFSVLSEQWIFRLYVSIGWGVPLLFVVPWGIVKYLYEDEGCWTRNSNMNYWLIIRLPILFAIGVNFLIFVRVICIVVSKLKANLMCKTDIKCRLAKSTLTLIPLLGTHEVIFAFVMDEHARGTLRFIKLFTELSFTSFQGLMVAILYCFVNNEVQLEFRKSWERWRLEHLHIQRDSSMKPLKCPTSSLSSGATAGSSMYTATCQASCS
Method: as §1

hGcg Receptor = target: T3, hGcg Receptor (Homo sapiens, UniProt P47871)
T3 construct: expressed in transfected cells; host or cells: baby hamster kidney (BHK) cells, stably transfected, with CRE-firefly luciferase reporter
T3 sequence (P47871 26-477): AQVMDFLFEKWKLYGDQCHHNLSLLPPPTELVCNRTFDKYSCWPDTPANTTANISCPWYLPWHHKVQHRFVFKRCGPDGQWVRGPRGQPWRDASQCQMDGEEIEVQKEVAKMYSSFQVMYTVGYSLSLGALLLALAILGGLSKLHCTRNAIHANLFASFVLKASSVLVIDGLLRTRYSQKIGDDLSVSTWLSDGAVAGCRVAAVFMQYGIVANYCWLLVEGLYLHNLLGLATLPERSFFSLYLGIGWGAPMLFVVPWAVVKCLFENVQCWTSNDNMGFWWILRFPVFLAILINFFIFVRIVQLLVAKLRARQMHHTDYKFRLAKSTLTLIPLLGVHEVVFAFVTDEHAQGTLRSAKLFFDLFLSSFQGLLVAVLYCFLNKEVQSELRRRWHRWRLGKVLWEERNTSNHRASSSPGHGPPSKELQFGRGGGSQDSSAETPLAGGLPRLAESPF
Method: as §1

| Structure (SMILES) | hGIP Receptor Relative Potency % (hGIP Receptor) [%] | hGLP-1 Receptor Relative Potency % (hGLP-1 Receptor) [%] | hGcg Receptor Relative Potency % (hGcg Receptor) [%] |
| --- | --- | --- | --- |
| CCCCCCCCCCCCCCCC(=O)NCCCC[C@H](NC(=O)[C@H](CO)NC(=O)[C@@H]1CCCN1C(=O)[C@@H]1CCCN1C(=O)[C@@H]1CCCN1C(=O)[C@H](C)NC(=O)CNC(=O)[C@H](CO)NC(=O)[C@H](CO)NC(=O)[C@@H]1CCCN1C(=O)CNC(=O)CNC(=O)[C@H](C)NC(=O)[C@H](CC(C)C)NC(=O)[C@H](CC(C)C)NC(=O)[C@H](Cc1c[nH]c2ccccc12)NC(=O)[C@H](CC(N)=O)NC(=O)[C@@H](NC(=O)[C@H](Cc1ccccc1)NC(=O)[C@H](CCC(=O)O)NC(=O)C(C)(C)NC(=O)[C@H](C)NC(=O)[C@H](C)NC(=O)[C@H](CCC(N)=O)NC(=O)[C@H](CCCCN)NC(=O)[C@H](CC(=O)O)NC(=O)[C@H](CC(C)C)NC(=O)[C@H](Cc1ccc(O)cc1)NC(=O)[C@@H](NC(=O)[C@H](CO)NC(=O)[C@H](Cc1ccc(O)cc1)NC(=O)[C@H](CC(=O)O)NC(=O)[C@H](CO)NC(=O)[C@@H](NC(=O)[C@H](Cc1ccccc1)NC(=O)[C@@H](NC(=O)CNC(=O)[C@H](CCC(N)=O)NC(=O)C(C)(C)NC(=O)[C@@H](N)Cc1ccc(O)cc1)[C@@H](C)O)[C@@H](C)O)[C@@H](C)CC)C(C)C)C(N)=O [Compound 5] | 173 | 199 | 33 |
| CC[C@H](C)[C@H](NC(=O)[C@H](CO)NC(=O)[C@H](Cc1ccc(O)cc1)NC(=O)[C@H](CC(=O)O)NC(=O)[C@H](CO)NC(=O)[C@@H](NC(=O)[C@H](Cc1ccccc1)NC(=O)[C@@H](NC(=O)CNC(=O)[C@H](Cc1c[nH]cn1)NC(=O)C(C)(C)NC(=O)[C@@H](N)Cc1c[nH]cn1)[C@@H](C)O)[C@@H](C)O)C(=O)N[C@@H](Cc1ccc(O)cc1)C(=O)N[C@@H](CC(C)C)C(=O)N[C@@H](CCC(=O)O)C(=O)N[C@@H](CCCCNC(=O)[C@@H](N)CCCCNC(=O)[C@@H](N)CCCCNC(=O)CC[C@H](NC(=O)CCCCCCCCCCCCCCCCCCC(=O)O)C(=O)O)C(=O)N[C@@H](CCC(N)=O)C(=O)N[C@@H](C)C(=O)N[C@@H](C)C(=O)NC(C)(C)C(=O)N[C@@H](CCC(=O)O)C(=O)N[C@@H](Cc1ccccc1)C(=O)N[C@H](C(=O)N[C@@H](CCC(N)=O)C(=O)N[C@@H](Cc1c[nH]c2ccccc12)C(=O)N[C@@H](CC(C)C)C(=O)N[C@@H](CC(C)C)C(=O)N[C@@H](CCC(=O)O)C(=O)NCC(=O)NCC(=O)N1CCC[C@H]1C(=O)N[C@@H](CO)C(=O)N[C@@H](CO)C(=O)NCC(=O)N[C@@H](C)C(=O)N1CCC[C@H]1C(=O)N1CCC[C@H]1C(=O)N1CCC[C@H]1C(=O)N[C@@H](CO)C(N)=O)C(C)C [Compound 13] (H-H[Aib]HGTFTSDYSIYLEK([εLys-εLys-γGlu-C20 diacid])QAA[Aib]EFVQWLLEGGPSSGAPPPS-NH2) | 146 | 340 | 19 |
